We go through 2 molecules from patent publication US20250374923A1 (priority 2022, published 2025).

Values joined by “and” are separate entries in the source; they are usually repeats but may differ in a detail not shown here. Equal entries are not always repeated. Structures can show the parent of a compound that is named as a salt.

In data set [1] the test system is citrus greening.
Description: The treatment delivered 150 mg OTC-HCl per season.
The treatment delivered 600 mg OTC-HCl per season.
In data set [2] the test system is citrus greening. Conditions: average across six replications; harvested December 21.
Excerpt: (§1) Treatments included the application of oxytetracycline (OTC) using Invaio's proprietary injection system into the scion of each tree. The trial was designed as a randomized complete blocking which three treatments were applied to each of four trees within each of six replications at three different treatment dates. […] The OTC is a commercial oxytetracycline product. One injection of OTC was made in each tree for the first two injections timings and two OTC injections were made per tree at the third application timing.
Fruit yield. Fruit yield was determined for trees of each treatment as the total weight (lbs) of fruit picked (harvested) from each tree on December 21. Fruit yield was recorded as an average by replication and as an average across all six replications (Table 3).
For data set [3] the following is noted: average of six replications; fruit collected December 7.
Excerpt: as §1
Fruit was collected from trees of the OTC treatment by replication on December 7 and bulked according to treatment and replication to create individual fruit samples for OTC residue analysis. Similarly, fruit was collected from trees from two replications of nontreated treatments and bulked by replication to create individual fruit samples for OTC residue analysis.
Data set [4] concerns citrus greening. Put plainly: Example 1 field trial: fruit drop.
Excerpt: (§2) Field trial design. […] Treatments included the application of oxytetracycline (OTC) using Invaio's proprietary injection system into the scion of each tree. The trial was designed as a randomized complete blocking which three treatments were applied to each of four trees within each of six replications at three different treatment dates. […] The OTC is a commercial oxytetracycline product. One injection of OTC was made in each tree for the first two injections timings and two OTC injections were made per tree at the third application timing.
Fruit drop. Fruit drop was determined for trees of each treatment as the number of fruit on the ground underneath each tree at each of six counting dates, approximately 2 weeks apart, beginning on October 13 and finishing prior to fruit harvest on December 21. Counted fruit were removed from the ground after each counting date. Fruit drop was recorded as an average by date and as an average across all six dates (Table 4).
Data set [5] relates to citrus greening. The experiment in a line: Example 1 field trial: BRIX analysis of fruit. Conditions: fruit collected December 8.
Excerpt: as §2
BRIX analysis. Fruit was collected from trees of each treatment by replication on December 8 and bulked according to treatment and replication to create individual fruit samples for BRIX analysis.

Regarding `CN(C)[C@@H]1C(O)=C(C(N)=O)C(=O)[C@@]2(O)C(O)=C3C(=O)c4c(O)cccc4[C@@](C)(O)[C@H]3[C@H](O)[C@@H]12` [OTC-HCl, oxytetracycline hydrochloride], the “yield increase over water” value with citrus greening [1] (150 mg OTC-HCl per season (FIG. 30)) is “about 74%”. Further, the “yield increase over the nontreated controls” value in the data set on citrus greening [1] (600 mg OTC-HCl per season (FIG. 31)) is reported as roughly 53%.

For the molecule `CN(C)[C@@H]1C(O)=C(C(N)=O)C(=O)[C@@]2(O)C(O)=C3C(=O)c4c(O)cccc4[C@@](C)(O)[C@H]3[C@H](O)[C@@H]12` [OTC, oxytetracycline], the “Fruit yield (lbs per tree), treatment average” value in the data set on citrus greening [2] is 48.7 lbs per tree and 50.4 lbs per tree. Besides, in data set [3], the “OTC residue in fruit, treatment average” value was 0.007 ppm and 0.006616 ppm. The “Fruit drop (number), treatment average” value in the data set on citrus greening [4] (average across replications and dates) worked out at 17.8 number. For the same molecule, in the data set on citrus greening [4] (average of six counting dates, by replication), the “Fruit drop (number), rep average across dates” value is 20.9 number and 20.5 number and 16.0 number and 17.1 number and 14.5 number and 18.0 number. The “Fruit drop (number)” value in the data set on citrus greening [4] (counting date 8-Dec, by replication) is 19.0 number and 13.3 number and 14.0 number and 12.3 number and 15.0 number and 22.8 number; with citrus greening [4] (counting date 9-Nov, by replication), 31.5 number and 20.5 number and 23.8 number and 18.5 number and 22.0 number and 28.0 number; with citrus greening [4] (counting date 13-Oct, by replication), 11.5 number and 8.8 number and 9.0 number and 7.3 number and 14.5 number and 14.3 number; with citrus greening [4] (counting date 21-Dec, by replication), 17.5 number and 20.0 number and 16.5 number and 16.8 number and 12.0 number and 15.0 number; with citrus greening [4] (counting date 24-Nov, by replication), 26.8 number and 18.3 number and 20.8 number and 21.8 number and 28.0 number; in the data set on citrus greening [4] (counting date 28-Oct, by replication) it was 14.5 number and 18.8 number and 18.3 number and 16.3 number and 19.8 number and 15.0 number. Further, in the data set with citrus greening [5] (average of six replications), the “Brix, treatment average” value is 8.0. In addition, the Brix in the data set with citrus greening [5] (by replication, OTC 1.58 mg/mL, 60 ml scion injections) was 8.1 and 8.4 and 8 and 7.6.
